Measured values: patent publication US7153853B2, “Heterocyclic compounds and antitumor drugs containing the same as the active ingredient” (Zenyaku Kogyo Kabushiki Kaisha, priority 2002, dated 2006)
Read-outs that look alike come from different tables or passages of the source.

Legend:
[1] = tested on: MCF-7 cells; test: Test 1: growth inhibition of MCF-7 human breast cancer cells; assay type: cell-based; settings: read-out: GI50 (50% growth inhibition concentration)
Description: Used in the test were MCF-7 cells which were established from human breast cancer and were cultured routinely under the conditions of 37° C. and 5% CO2, in MEM medium supplemented with 10% fetal calf serum, 25 mM of HEPES and 0.1 mg/ml of kanamycin. The MCF-7 cells in a logarithmic growth phase were treated with trypsin/EDTA to prepare single cell suspension adjusted to 4.0×10^4 cells/ml in MEM medium (supplemented with 10% fetal calf serum, 25 mM of HEPES and 0.1 mg/ml of kanamycin). Test compounds were dissolved in DMSO and diluted with RPMI 1640 medium (supplemented with 10% fetal calf serum, 25 mM of HEPES and 0.1 mg/ml of kanamycin) to a concentration of 2.0×10^−9−2.0×10^−4 M.
The cell suspension was filled in a 96-wells microplate at a rate of 0.1 ml per well and was cultured for 24 hours so as to make the cells adhered to the microplate. Then, it was added with 0.1 ml of the sample solution and cultured at 37° C. for 72 hours in 5% CO2.
50% Growth inhibition concentrations (GI50 μM) were calculated from growth inhibitions at various sample concentrations.

[2] = tested on: human colonic cancer WiDr; test: Test 2: human colonic cancer WiDr transplanted subcutaneously in nude mice, relative tumor growth T/C; assay type: in vivo, BALB/c nude mice; settings: 200 mg/kg intraperitoneally, once a day, six times a week, two weeks; effective (+) = T/C less than 50% and Mann-Whitney significant at one-sided 1%
Excerpt: Mutant BALB/c nude mice were used for routine culture of 2-mm-square piece of human colonic cancer WiDr which was transplanted subcutaneously into left breast of each of the mice. The mice were separated for testing into groups each of five mice at the time of the tumor in its logarithmic growth phase. The samples prepared by dissolving test compounds in physiological saline solution or suspending them in 1% hydroxypropyl cellulose (HPC), using an agate mortar, were intraperitoneally administered at a rate of 200 mg/kg, once a day and six times a week in total, for two weeks. Major and minor axes of the tumor mass were measured on a daily basis to calculate tumor volume. […] As a result, the compound according to the present invention was effective whereas the comparative compound A was ineffective.

[3] = Homo sapiens, MCF7, cultured 72 hours with sample

Q: For CN1CCC(N(C)c2nc(N3CCOCC3)nc(-n3c(C(F)F)nc4c(Cl)cc(N)cc43)n2)CC1, which melting point is on record?
A: The melting point was 194 °C (dec.).

Q: What does the source list for C[C@@H]1OCCN(c2cc(N3CCOCC3)nc(-n3cnc4ccccc43)n2)[C@H]1C (relative stereo) [compound A, 2-(benzimidazol-1-yl)-4-(trans-2,3-dimethylmorpholino)-6-morpholinopyrimidine, reference compound]?
A: GI50 [1, 3]: 2200 nM; antitumor effect judged from T/C (%) of the last day [2]: ineffective

Q: For OCC1CCCN1c1cc(N2CCOCC2)nc(-n2c(C(F)F)nc3c(O)cccc32)n1 (stereo not drawn) [compound 1, 2-(2-difluoromethyl-4-hydroxybenzimidazol-1-yl)-4-(2-hydroxymethylpyrrolidin-1-yl)-6-morpholinopyrimidine], which GI50 [1, 3] is on record?
A: Its GI50 is 70 nM.

Q: What about the melting point of the same compound?
A: Its melting point is 195 to 198 °C.

Q: Which results are given for CC1(C)CN(c2nc(N3CCOCC3)nc(-n3c(C(F)F)nc4c(Cl)cc(N)cc43)n2)CCO1 [compound 2, 2-(6-amino-4-chloro-2-difluoromethylbenzimidazol-1-yl)-4-(2,2-dimethylmorpholino)-6-morpholino-1,3,5-triazine]?
A: GI50 [1, 3]: 80 nM; melting point: 238 °C (dec.)

Q: With Nc1cc(Cl)c2nc(C(F)F)n(-c3nc(N4CCOCC4)nc(N4CCCC4CO)n3)c2c1 (stereo not drawn) [compound 3, 2-(6-amino-4-chloro-2-difluoromethylbenzimidazol-1-yl)-4-(2-hydroxymethylpyrrolidin-1-yl)-6-morpholino-1,3,5-triazine] as the compound, how does the GI50 [1, 3] read?
A: The GI50 was 270 nM.

Q: What about the melting point of the same compound?
A: The melting point was 256 °C (dec.).

Q: With OCC1CCCN1c1nc(N2CCOCC2)nc(-n2c(C(F)F)nc3c(O)cccc32)n1 (stereo not drawn) [compound 5, 2-(2-difluoromethyl-4-hydroxybenzimidazol-1-yl)-4-(2-hydroxymetylpyrrolidin-1-yl)-6-morpholino-1,3,5-triazine] as the compound, how does the GI50 ([1]; cultured 72 hours with sample) read?
A: Its GI50 is 60 nM.

Q: With Oc1ccc2c(nc(C(F)F)n2-c2nc(N3CCOCC3)nc(N3CCOCC3)n2)c1Cl [compound 6, 2-(4-chloro-2-difluoromethyl-5-hydroxybenzimidazol-1-yl)-4,6-dimorpholino-1,3,5-triazine] as the compound, how does the GI50 [1, 3] read?
A: Its GI50 is 80 nM.

Q: And the melting point?
A: The melting point was over 250 °C.

Q: With Cc1nc2ccccc2n1-c1nc(N2CCOCC2)nc(N2CCOCC2)n1 [compound B, 2-(2-methylbenzimidazol-1-yl)-4,6-dimorpholino-1,3,5-triazine, reference compound] as the compound, how does the GI50 [1, 3] read?
A: The GI50 was 3700 nM.

Q: For c1cn(-c2nc(N3CCOCC3)nc(N3CCOCC3)n2)cn1 [compound C, 2-(imidazol-1-yl)-4,6-dimorpholino-1,3,5-triazine, reference compound], which GI50 [1, 3] is on record?
A: Its GI50 is 20000 nM.

Q: For CN(C)c1nc(N(C)C)nc(N(C)C)n1 [compound D, hexamethylmelamine, reference compound], which GI50 [1, 3] is on record?
A: The GI50 was over 100000 nM.
